Drawing on publication PMC6348771 (Redox Biology, 2018), this text covers IC50 for one molecule.

In the experiment the target is T1, glutathione reductase (GR) (Saccharomyces cerevisiae, UniProt P41921).
T1 sequence (P41921 1-483): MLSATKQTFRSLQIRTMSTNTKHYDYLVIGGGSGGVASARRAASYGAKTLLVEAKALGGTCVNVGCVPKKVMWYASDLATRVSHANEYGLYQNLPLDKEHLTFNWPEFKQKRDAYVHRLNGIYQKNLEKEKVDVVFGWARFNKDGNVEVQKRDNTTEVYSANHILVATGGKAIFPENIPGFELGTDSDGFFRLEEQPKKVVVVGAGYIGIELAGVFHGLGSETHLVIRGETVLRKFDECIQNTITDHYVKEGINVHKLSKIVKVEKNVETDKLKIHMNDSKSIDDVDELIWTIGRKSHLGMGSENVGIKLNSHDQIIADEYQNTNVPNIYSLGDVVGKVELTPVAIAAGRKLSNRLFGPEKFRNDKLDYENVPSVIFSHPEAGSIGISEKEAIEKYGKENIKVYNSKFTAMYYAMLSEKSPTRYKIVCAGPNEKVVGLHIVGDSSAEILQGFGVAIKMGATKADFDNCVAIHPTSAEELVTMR
Description: enzyme activity assay versus GSH concentration. The experiment is classed as biochemical.

The structures appear in SMILES notation.

The term IC50 denotes the concentration that inhibits the measured activity by half. Higher therefore signals lower potency.

For `N[C@@H](CCC(=O)N[C@@H](CS)C(=O)NCC(=O)O)C(=O)O` [GSH, Glutathione], the IC50 was ~10 mM.
